# Columns and labels:
# [1] = Tested for inhibition against CD23 (IgE receptor) proteolysis in membranes derived from RPM18866 cells (a human B-cell line)
# [2] = target: T1, Low affinity immunoglobulin epsilon Fc receptor (Homo sapiens, UniProt P06734); test: ChEBML_41676
# T1 sequence (P06734 whole entry): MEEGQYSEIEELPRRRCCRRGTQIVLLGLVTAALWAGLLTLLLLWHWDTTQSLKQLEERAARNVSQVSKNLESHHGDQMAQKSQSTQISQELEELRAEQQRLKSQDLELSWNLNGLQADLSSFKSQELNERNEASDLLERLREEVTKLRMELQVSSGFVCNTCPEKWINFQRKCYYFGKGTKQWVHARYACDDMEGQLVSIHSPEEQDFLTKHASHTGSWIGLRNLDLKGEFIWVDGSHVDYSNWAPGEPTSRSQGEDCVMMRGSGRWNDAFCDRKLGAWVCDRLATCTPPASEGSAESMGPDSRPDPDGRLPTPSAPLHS
# From the text: (§1) Tested for inhibition against CD23 (IgE receptor) proteolysis in membranes derived from RPM18866 cells ( a human B-cell line); value ranges from 5-10
# [3] = target: T1, Low affinity immunoglobulin epsilon Fc receptor; test: as §1
Structure (SMILES),IC50 [1] [µM],other results
CN(C)C[C@H](CC(=O)NO)C(=O)N[C@@H](Cc1ccccc1)C(=O)NCc1ccccc1 [(S)-N*1*-((S)-1-Benzylcarbamoyl-2-phenyl-ethyl)-2-dimethylaminomethyl-N*4*-hydroxy-succinamide],> 20,
C[C@H](CC(=O)NO)C(=O)N[C@@H](Cc1ccccc1)C(=O)NCc1ccccc1 [(R)-N*1*-((S)-1-Benzylcarbamoyl-2-phenyl-ethyl)-N*4*-hydroxy-2-methyl-succinamide],> 20,
O=C(C[C@@H](Cc1ccc2ccccc2c1)C(=O)N[C@@H](Cc1ccccc1)C(=O)NCc1ccccc1)NO [(R)-N*1*-((S)-1-Benzylcarbamoyl-2-phenyl-ethyl)-N*4*-hydroxy-2-naphthalen-2-ylmethyl-succinamide],,IC50 [2]: 1 µM
CC(C)SC[C@H](CC(=O)NO)C(=O)N[C@@H](Cc1ccccc1)C(=O)NCc1ccccc1 [(R)-N*1*-((S)-1-Benzylcarbamoyl-2-phenyl-ethyl)-N*4*-hydroxy-2-isopropylsulfanylmethyl-succinamide],,IC50 [2]: 8 µM
O=C(C[C@H](C(=O)N[C@@H](Cc1ccccc1)C(=O)NCc1ccccc1)c1ccc(-c2ccccc2)cc1)NO [(S)-N*1*-((S)-1-Benzylcarbamoyl-2-phenyl-ethyl)-2-biphenyl-4-yl-N*4*-hydroxy-succinamide],> 20,
CC(C)C[C@@H](CC(=O)NO)C(=O)N[C@@H](Cc1ccccc1)C(=O)NCc1ccccc1 [(S)-N*1*-((S)-1-Benzylcarbamoyl-2-phenyl-ethyl)-N*4*-hydroxy-2-isobutyl-succinamide],> 20,
O=C(C[C@H](C(=O)N[C@@H](Cc1ccccc1)C(=O)NCc1ccccc1)c1cccc2ccccc12)NO [(S)-N*1*-((S)-1-Benzylcarbamoyl-2-phenyl-ethyl)-N*4*-hydroxy-2-naphthalen-1-yl-succinamide],> 20,
O=C(C[C@H](C(=O)N[C@@H](Cc1ccccc1)C(=O)NCc1ccccc1)C1CCCCC1)NO [(S)-N*1*-((S)-1-Benzylcarbamoyl-2-phenyl-ethyl)-2-cyclohexyl-N*4*-hydroxy-succinamide],,IC50 [3]: 5 µM
NC(=O)CC[C@H](CC(=O)NO)C(=O)N[C@@H](Cc1ccccc1)C(=O)NCc1ccccc1 [(R)-3-((S)-1-Benzylcarbamoyl-2-phenyl-ethylcarbamoyl)-hexanedioic acid 6-amide 1-hydroxyamide],> 20,
O=C(CCC(=O)N[C@@H](Cc1ccccc1)C(=O)NCc1ccccc1)NO [N-((S)-1-Benzylcarbamoyl-2-phenyl-ethyl)-N'-hydroxy-succinamide],> 20,

# Further lines, with some results ahead:
IC50 [1] [µM],Structure (SMILES),other results
> 20,"O=C(C[C@@H](O)C(=O)N[C@@H](Cc1ccccc1)C(=O)NCc1ccccc1)NO [(R)-N*1*-((S)-1-Benzylcarbamoyl-2-phenyl-ethyl)-2,N*4*-dihydroxy-succinamide]",
3.7,O=C(C[C@@H](CC1CCCCC1)C(=O)N[C@@H](Cc1ccccc1)C(=O)NCc1ccccc1)NO [(R)-N*1*-((S)-1-Benzylcarbamoyl-2-phenyl-ethyl)-2-cyclohexylmethyl-N*4*-hydroxy-succinamide],
5,O=C(C[C@@H](CCc1ccccc1)C(=O)N[C@@H](Cc1ccccc1)C(=O)NCc1ccccc1)NO [(R)-N*1*-((S)-1-Benzylcarbamoyl-2-phenyl-ethyl)-N*4*-hydroxy-2-phenethyl-succinamide],
8,CC(C)S[C@H](CC(=O)NO)C(=O)N[C@@H](Cc1ccccc1)C(=O)NCc1ccccc1 [(R)-N*1*-((S)-1-Benzylcarbamoyl-2-phenyl-ethyl)-N*4*-hydroxy-2-isopropylsulfanyl-succinamide],
1.6,O=C(C[C@H](C(=O)N[C@@H](Cc1ccccc1)C(=O)NCc1ccccc1)c1ccccc1)NO [(S)-N*1*-((S)-1-Benzylcarbamoyl-2-phenyl-ethyl)-N*4*-hydroxy-2-phenyl-succinamide],
0.2,O=C(C[C@@H](CC1CCCC1)C(=O)N[C@@H](Cc1ccccc1)C(=O)NCc1ccccc1)NO [(R)-N*1*-((S)-1-Benzylcarbamoyl-2-phenyl-ethyl)-2-cyclopentylmethyl-N*4*-hydroxy-succinamide],

# Source: BindingDB's records for doi:10.1016/s0960-894x(97)10148-2 (Smithkline Beecham Pharmaceuticals, 1999)
